Assay results published in the supplement of paper PMC10307832.

Experiments:
Test in all cases: relative viability (nuclei count vs DMSO), 5 days (fraction); higher = more cells survive
HOP-62 = system: HOP-62
How it was run: (§1)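 Cells from lung cancer lines were seeded into 1536-well plates and, one day later, dosed by pin tool. Treatments were either a single drug or a fixed dose of an anchor drug with five library-drug doses (not always all listed) in √10 steps. After 5 days, nuclei were stained in a one-step fixation (final 0.05% Triton X-100, 1% formaldehyde, 1 ug/ml Hoechst) and counted on 4× images, and relative viability is the treated-to-vehicle nuclei ratio, as the median of duplicate plates.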

COR-L 105 = system: COR-L 105
How it was run: as §1

LXF-289 = system: LXF-289
How it was run: as §1

LCLC-97TM1 = system: LCLC-97TM1
How it was run: as §1

NCI-H1944 = system: NCI-H1944
How it was run: as §1

NCI-H2085 = system: NCI-H2085
How it was run: as §1

NCI-H1793 = system: NCI-H1793
How it was run: as §1

UMC-11 = system: UMC-11
How it was run: as §1

LC-2-ad = system: LC-2-ad
How it was run: as §1

NCI-H1915 = system: NCI-H1915
How it was run: as §1

NCI-H1755 = system: NCI-H1755
How it was run: as §1

NCI-H2170 = system: NCI-H2170
How it was run: as §1

HCC-78 = system: HCC-78
How it was run: as §1

EPLC-272H = system: EPLC-272H
How it was run: as §1

SK-LU-1 = system: SK-LU-1
How it was run: as §1

NCI-H1975 = system: NCI-H1975
How it was run: as §1

NCI-H358 = system: NCI-H358
How it was run: as §1

LU99A = system: LU99A
How it was run: as §1

HCC-366 = system: HCC-366
How it was run: as §1

NCI-H460 = system: NCI-H460
How it was run: as §1

A-427 = system: A-427
How it was run: as §1

NCI-H1792 = system: NCI-H1792
How it was run: as §1

Structure (SMILES): Oc1nc(-c2ccc(C(F)(F)F)cc2)nc2c1CSCC2 [XAV939] + CS(=O)(=O)N1CCN(Cc2cc3nc(-c4cccc5[nH]ncc45)nc(N4CCOCC4)c3s2)CC1 [Pictilisib] (partner 1 µM)
- relative viability (HOP-62; first compound 0.08 µM): 1.04
- relative viability (HOP-62; first compound 0.253 µM): 0.62
- relative viability (HOP-62; first compound 0.8 µM): 0.596
- relative viability (HOP-62; first compound 2.53 µM): 0.672
- relative viability (COR-L 105; first compound 0.08 µM): 0.371
- relative viability (COR-L 105; first compound 0.253 µM): 0.304
- relative viability (COR-L 105; first compound 0.8 µM): 0.349
- relative viability (COR-L 105; first compound 2.53 µM): 0.347
- relative viability (LXF-289; first compound 0.08 µM): 0.872
- relative viability (LXF-289; first compound 0.253 µM): 0.731
- relative viability (LXF-289; first compound 0.8 µM): 0.764
- relative viability (LXF-289; first compound 2.53 µM): 0.597
- relative viability (LCLC-97TM1; first compound 0.08 µM): 0.169
- relative viability (LCLC-97TM1; first compound 0.253 µM): 0.198
- relative viability (LCLC-97TM1; first compound 0.8 µM): 0.165
- relative viability (LCLC-97TM1; first compound 2.53 µM): 0.18
- relative viability (NCI-H1944; first compound 0.08 µM): 0.37
- relative viability (NCI-H1944; first compound 0.253 µM): 0.197
- relative viability (NCI-H1944; first compound 0.8 µM): 0.348
- relative viability (NCI-H1944; first compound 2.53 µM): 0.287
- relative viability (NCI-H2085; first compound 0.08 µM): 0.388
- relative viability (NCI-H2085; first compound 0.253 µM): 0.412
- relative viability (NCI-H2085; first compound 0.8 µM): 0.445
- relative viability (NCI-H2085; first compound 2.53 µM): 0.355
- relative viability (NCI-H1793; first compound 0.08 µM): 0.344
- relative viability (NCI-H1793; first compound 0.253 µM): 0.308
- relative viability (NCI-H1793; first compound 0.8 µM): 0.308
- relative viability (NCI-H1793; first compound 2.53 µM): 0.363
- relative viability (UMC-11; first compound 0.08 µM): 0.733
- relative viability (UMC-11; first compound 0.8 µM): 0.752
- relative viability (UMC-11; first compound 2.53 µM): 0.712
- relative viability (LC-2-ad; first compound 0.08 µM): 0.5
- relative viability (LC-2-ad; first compound 0.253 µM): 1.13
- relative viability (LC-2-ad; first compound 0.8 µM): 0.407
- relative viability (LC-2-ad; first compound 2.53 µM): 0.428
- relative viability (NCI-H1915; first compound 0.08 µM): 1.11
- relative viability (NCI-H1915; first compound 0.253 µM): 0.967
- relative viability (NCI-H1915; first compound 0.8 µM): 0.941
- relative viability (NCI-H1915; first compound 2.53 µM): 0.921
- relative viability (NCI-H1755; first compound 0.08 µM): 0.456
- relative viability (NCI-H1755; first compound 0.253 µM): 0.353
- relative viability (NCI-H1755; first compound 0.8 µM): 0.413
- relative viability (NCI-H1755; first compound 2.53 µM): 0.388
- relative viability (NCI-H2170; first compound 0.08 µM): 0.298
- relative viability (NCI-H2170; first compound 0.253 µM): 0.277
- relative viability (NCI-H2170; first compound 0.8 µM): 0.269
- relative viability (NCI-H2170; first compound 2.53 µM): 0.26
- relative viability (HCC-78; first compound 0.08 µM): 0.216
- relative viability (HCC-78; first compound 0.253 µM): 0.206
- relative viability (HCC-78; first compound 0.8 µM): 0.161
- relative viability (HCC-78; first compound 2.53 µM): 0.213
- relative viability (EPLC-272H; first compound 0.08 µM): 0.347
- relative viability (EPLC-272H; first compound 0.253 µM): 0.36
- relative viability (EPLC-272H; first compound 0.8 µM): 0.302
- relative viability (EPLC-272H; first compound 2.53 µM): 0.323
- relative viability (SK-LU-1; first compound 0.08 µM): 0.631
- relative viability (SK-LU-1; first compound 0.253 µM): 0.504
- relative viability (SK-LU-1; first compound 0.8 µM): 0.646
- relative viability (SK-LU-1; first compound 2.53 µM): 0.565
- relative viability (NCI-H1975; first compound 0.08 µM): 0.258
- relative viability (NCI-H1975; first compound 0.253 µM): 0.263
- relative viability (NCI-H1975; first compound 0.8 µM): 0.248
- relative viability (NCI-H1975; first compound 2.53 µM): 0.207
- relative viability (NCI-H358; first compound 0.08 µM): 0.306
- relative viability (NCI-H358; first compound 0.253 µM): 0.232
- relative viability (NCI-H358; first compound 0.8 µM): 0.336
- relative viability (NCI-H358; first compound 2.53 µM): 0.277
- relative viability (LU99A; first compound 0.08 µM): 0.336
- relative viability (LU99A; first compound 0.253 µM): 0.279
- relative viability (LU99A; first compound 0.8 µM): 0.305
- relative viability (LU99A; first compound 2.53 µM): 0.293
- relative viability (HCC-366; first compound 0.08 µM): 0.164
- relative viability (HCC-366; first compound 0.253 µM): 0.114
- relative viability (HCC-366; first compound 0.8 µM): 0.142
- relative viability (HCC-366; first compound 2.53 µM): 0.0889
- relative viability (NCI-H460; first compound 0.08 µM): 0.362
- relative viability (NCI-H460; first compound 0.253 µM): 0.332
- relative viability (NCI-H460; first compound 0.8 µM): 0.284
- relative viability (NCI-H460; first compound 2.53 µM): 0.334
- relative viability (A-427; first compound 0.08 µM): 0.962
- relative viability (A-427; first compound 0.253 µM): 0.63
- relative viability (A-427; first compound 0.8 µM): 0.596
- relative viability (A-427; first compound 2.53 µM): 0.65
- relative viability (NCI-H1792; first compound 0.08 µM): 0.331
- relative viability (NCI-H1792; first compound 0.253 µM): 0.254
- relative viability (NCI-H1792; first compound 0.8 µM): 0.229
- relative viability (NCI-H1792; first compound 2.53 µM): 0.257
